Laboratory results taken from patent US20260317312A1, “ISOXAZOLIDINES AS RIPK1 INHIBITORS AND USE THEREOF” (GENZYME CORPORATION, priority 2023, published 2026).
pIC50: −log10 of the molar value.

Legend:
U937 cells = assay: Cellular assay in U937 cells to measure activity of RIPK1-inhibitors on cell death (necroptosis); type: cell-based; settings: overnight (18 to 24 hrs), 37° C., MTS readout
Excerpt: Upon TNF-Receptor I ligation, Ser/Thr kinase RIPK1 is recruited to a transient receptor complex I. Upon modification of RIPK1 which promotes activation of RIPK1, complex lib can form, that involves recruitment of RIPK3 and MLKL (mixed lineage-kinase domain-like protein) which then translocates from the cytosol to the plasma membrane to execute cell death (Cai, Z. et al, Nat. Cell Biol. (2014)16:55-65).
Cell death was quantified in 96 well plates by determination of the amount of live cell using a CellTiter 96 Aqueous reagent (Promega), a calorimetric method to measure the number of live cells by reducing tetrazolium compound [3-(4,5-dimethylthiazol-2-yl)-5-(3-carboxymethoxyphenyl)-2-(4-sulfophenyl)-2H-tetrazolium, inner salt; MTS] into formazan. Absorbance of formazan was read at 490 nm. The inhibitory activity of the test compound was quantified in a concentration response curve (CRC) experiment.
Compounds were obtained as 10 mM stock solutions and were diluted 1 to 10 volumes with DMSO to yield a 1 mM solution. From this solution 2 μl were diluted with 998 μl growth medium. 100 μl of 2 μM compound solution was further diluted sequentially with a dilution factor of 2.5 by adding 150 μl growth medium. A total of 10 concentrations were tested ranging from 10 μM to 0.26 nM or from 1 μM to 0.07 nM.
U937 cells were cultured in RPM11640 Glutamax and 10% heat inactivated FBS. 50 μl cell suspension containing 1×10^6 cells/ml supplemented with 50 μM zVAD.fmk (Benzyloxycarbonyl-Val-Ala-Asp (Ome) fluoromethylketone) and 100 ng/ml recombinant human TNFα were dispensed in each well of a 96-well plate. 50 μl of compound dilutions (described in Cellular assay in U937 cells) were added and the cell suspension incubated overnight (18 to 24 hrs) at 37° C., 5% CO2 in a humidified atmosphere (95% rH). High (no compound) and low control (no TNFα, zVAD.fmk) were tested with 7 replicates; all compound concentrations were tested in duplicates on each experimental plate.
CellTiter 96 Aqueous reagent was mixed (100 μl PMS (phenazine methosulfate) solution/2 ml MTS (3-(4,5-[…])-5-(3-carboxymethoxyphenyl)-2-(4-sulfophenyl)-2H-tetrazolium, inner salt) solution) and 20 μl were added per well. After 4 hrs incubation at 37° C. (5% CO2 95% rH) optical density was measured at 490 nm on a microplate reader (Tecan Infinite M1000).
The % inhibition is expressed as percentage of the maximal inhibition value obtained in the absence of TNFα/zVAD.fmc.

[1] = target: T1, hRIPK1 (aa 1-375) fusion protein (Homo sapiens, UniProt Q13546); assay: Receptor-Interacting Protein Kinase 1 inhibition, ADP Glo assay (conversion of ATP to ADP due to autophosphorylation); type: biochemical; settings: ATP 50 μM, 30 min preincubation, 240 min incubation, room temperature, DMSO 1%
T1 construct: hRIPK1 (aa 1-375) fusion protein
T1 sequence (Q13546 1-375): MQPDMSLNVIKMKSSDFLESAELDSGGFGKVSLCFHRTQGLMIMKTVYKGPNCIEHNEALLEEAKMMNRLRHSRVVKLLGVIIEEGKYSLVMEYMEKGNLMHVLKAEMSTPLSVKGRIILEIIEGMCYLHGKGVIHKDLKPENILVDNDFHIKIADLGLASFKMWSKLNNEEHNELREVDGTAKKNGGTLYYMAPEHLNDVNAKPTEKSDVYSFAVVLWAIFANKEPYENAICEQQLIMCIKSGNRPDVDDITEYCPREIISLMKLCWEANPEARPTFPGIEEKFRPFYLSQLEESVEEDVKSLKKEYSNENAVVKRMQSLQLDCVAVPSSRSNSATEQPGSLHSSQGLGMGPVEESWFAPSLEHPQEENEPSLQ
Experimental: The catalytic activity of RIPK1 was measured by monitoring the conversion of Adenosine triphosphate (ATP) to Adenosine diphosphate (ADP) due to autophosphorylation using an ADP-Glo kinase kit (Promega, catalog no. V9104).
In detail, 2 μl recombinantly produced hRIPK1 (aa 1-375) fusion protein (end concentration 3.6 μg/ml) and 2 μl compound (end concentration 33300-1.69 nM; DMSO end concentration 1%) were incubated for 30 minutes at room temperature and then 2 μl ATP (ADP Glo kit, end concentration 50 μM) were added. After another 240 minutes incubation at room temperature, 5 μl Promega ADP-Glo reagent I was added to quench the reaction and deplete unconsumed ATP. After an incubation period of 30 minutes, 10 μl Promega ADP-Glo detection reagent II was added resulting in conversion of ADP to ATP, which generates a light-reaction between luciferase and luciferin. Luminescence was quantified after 30 minutes with a Pherastar FS (BMG LABTECH, Ortenberg).
The adjustment was obtained by nonlinear regression using the Levenberg Marquardt algorithm.

[2] = Homo sapiens, U-937, TNFα/zVAD.fmk induced cell death (necroptosis)
[3] = TNFα/zVAD.fmk induced cell death (necroptosis)

Row | Compound | pIC50 (U937 cells; [2]) | pIC50 [1] | pIC50 (U937 cells; [3])
1 | N#Cc1cc(F)cc([C@@H]2CCON2C(=O)[C@H]2C[C@@H](Nc3ccc(F)c(C#N)c3)C2)c1 [Compound 32, cis-5-((3-((S)-3-(3-cyano-5-fluorophenyl)isoxazolidine-2-carbonyl)cyclobutyl)amino)-2-fluorobenzonitrile] | 7.30 | 7.55 | 
2 | N#Cc1cc(N[C@H]2C[C@@H](C(=O)N3OCC[C@H]3c3cncc(F)c3)C2)ccc1F [Compound 33, cis-2-fluoro-5-((3-((S)-3-(5-fluoropyridin-3-yl)isoxazolidine-2-carbonyl)cyclobutyl)amino)benzonitrile] |  | 7.66 | 7.21
3 | N#Cc1cc(NC[C@H]2CC[C@H](C(=O)N3OCC[C@H]3c3cncc(F)c3)CC2)ccc1F [Compound 34, trans-2-fluoro-5-(((4-((S)-3-(5-fluoropyridin-3-yl)isoxazolidine-2-carbonyl)cyclohexyl)methyl)amino)benzonitrile] | 7.96 | 7.70 | 
4 | N#Cc1cc(F)cc([C@@H]2CCON2C(=O)[C@H]2CC[C@H](CNc3ccc(F)c(C#N)c3)CC2)c1 [Compound 35, trans-5-(((4-((S)-3-(3-cyano-5-fluorophenyl)isoxazolidine-2-carbonyl)cyclohexyl)methyl)amino)-2-fluorobenzonitrile] |  | 7.74 | 8.40
5 | N#Cc1cc(F)cc(N[C@H]2C[C@@H](C(=O)N3OCC[C@H]3c3cncc(F)c3)C2)c1 [Compound 36, cis-3-fluoro-5-((3-((S)-3-(5-fluoropyridin-3-yl)isoxazolidine-2-carbonyl)cyclobutyl)amino)benzonitrile] | 7.01 | 7.38 | 
6 | N#Cc1cc(F)cc(N[C@H]2C[C@@H](C(=O)N3OCC[C@H]3c3cc(F)cc(C#N)c3)C2)c1 [Compound 37, cis-3-((S)-2-(3-((3-cyano-5-fluorophenyl)amino)cyclobutane-1-carbonyl)isoxazolidin-3-yl)-5-fluorobenzonitrile] | 7.35 | 7.47 | 
7 | N#Cc1cc(F)cc(NC[C@H]2CC[C@H](C(=O)N3OCC[C@H]3c3cc(F)cc(C#N)c3)CC2)c1 [Compound 38, trans-3-((S)-2-(4-(((3-cyano-5-fluorophenyl)amino)methyl)cyclohexane-1-carbonyl)isoxazolidin-3-yl)-5-fluorobenzonitrile] | 7.66 | 7.57 | 
8 | N#Cc1cc(F)cc(N[C@H]2CC[C@@H](C(=O)N3OCC[C@H]3c3cc(F)cc(C#N)c3)CC2)c1 [Compound 39, cis-3-((S)-2-(4-((3-cyano-5-fluorophenyl)amino)cyclohexane-1-carbonyl)isoxazolidin-3-yl)-5-fluorobenzonitrile] | 6.40 | 6.95 | 
9 | N#Cc1cc(F)cc([C@@H]2CCON2C(=O)[C@H]2C[C@@H](n3cnc4ccccc43)C2)c1 [Compound 40, cis-3-((S)-2-(3-(1H-benzo[d]imidazol-1-yl)cyclobutane-1-carbonyl)isoxazolidin-3-yl)-5-fluorobenzonitrile] | 6.58 | 7.74 | 
10 | O=C([C@H]1C[C@@H](n2cnc3ccccc32)C1)N1OCC[C@H]1c1cc(F)cc(F)c1 [Compound 41, cis-(3-(1H-benzo[d]imidazol-1-yl)cyclobutyl)((S)-3-(3,5-difluorophenyl)isoxazolidin-2-yl)methanone] | 7.21 | 7.80 | 
11 | O=C([C@H]1C[C@@H](n2cnc3ccccc32)C1)N1OCC[C@H]1c1cncc(F)c1 [Compound 42, cis-(3-(1H-benzo[d]imidazol-1-yl)cyclobutyl)((S)-3-(5-fluoropyridin-3-yl)isoxazolidin-2-yl)methanone] | 6.04 | 6.81 | 
12 | N#Cc1cc(OC[C@H]2CC[C@H](C(=O)N3OCC[C@H]3c3cc(F)cc(F)c3)CC2)ccc1F [Compound 43, trans-5-((4-((S)-3-(3,5-difluorophenyl)isoxazolidine-2-carbonyl)cyclohexyl)methoxy)-2-fluorobenzonitrile] | 8.70 | 7.96 | 
13 | N#Cc1cc(F)cc([C@@H]2CCON2C(=O)[C@H]2CC[C@H](COc3ccc(F)c(C#N)c3)CC2)c1 [Compound 44, trans-5-((4-((S)-3-(3-cyano-5-fluorophenyl)isoxazolidine-2-carbonyl)cyclohexyl)methoxy)-2-fluorobenzonitrile] | 8.30 | 7.57 | 
14 | N#Cc1cc(OC[C@H]2CC[C@H](C(=O)N3OCC[C@H]3c3cc(F)cc(F)c3)CC2)ncn1 [Compound 45, trans-6-((4-((S)-3-(3,5-difluorophenyl)isoxazolidine-2-carbonyl)cyclohexyl)methoxy)pyrimidine-4-carbonitrile] | 7.42 | 7.36 | 
15 | O=C([C@H]1CC[C@H](COc2cc(Cl)ncn2)CC1)N1OCC[C@H]1c1cc(F)cc(F)c1 [Compound 46, trans-(4-(((6-chloropyrimidin-4-yl)oxy)methyl)cyclohexyl)((S)-3-(3,5-difluorophenyl)isoxazolidin-2-yl)methanone] | 7.85 | 7.39 | 
16 | NC(=O)c1cc(OC[C@H]2CC[C@H](C(=O)N3OCC[C@H]3c3cc(F)cc(F)c3)CC2)ncn1 [Compound 47, trans-6-((4-((S)-3-(3,5-difluorophenyl)isoxazolidine-2-carbonyl)cyclohexyl)methoxy)pyrimidine-4-carboxamide] | 7.68 | 7.30 | 
17 | N#Cc1cc(F)cc(OC[C@H]2CC[C@H](C(=O)N3OCC[C@H]3c3cc(F)cc(F)c3)CC2)c1 [Compound 48, trans-3-((4-((S)-3-(3,5-difluorophenyl)isoxazolidine-2-carbonyl)cyclohexyl)methoxy)-5-fluorobenzonitrile] | 7.89 | 7.36 | 
18 | N#Cc1cc(F)cc(OC[C@H]2CC[C@H](C(=O)N3OCC[C@H]3c3cc(F)cc(C#N)c3)CC2)c1 [Compound 49, trans-3-((S)-2-(4-((3-cyano-5-fluorophenoxy)methyl)cyclohexane-1-carbonyl)isoxazolidin-3-yl)-5-fluorobenzonitrile] | 7.74 | 7.36 | 
19 | N#Cc1cc(F)cc(O[C@H]2C[C@H](C(=O)N3OCC[C@H]3c3cc(F)cc(F)c3)C2)c1 [Compound 50, trans-3-(3-((S)-3-(3,5-difluorophenyl)isoxazolidine-2-carbonyl)cyclobutoxy)-5-fluorobenzonitrile] | 6.89 | 7.60 | 
20 | N#Cc1cc(O[C@H]2C[C@H](C(=O)N3OCC[C@H]3c3cc(F)cc(F)c3)C2)ccc1F [Compound 51, trans-5-(3-((S)-3-(3,5-difluorophenyl)isoxazolidine-2-carbonyl)cyclobutoxy)-2-fluorobenzonitrile] | 8.22 | 7.68 | 
21 | N#Cc1cc(OC[C@H]2CC[C@@H](C(=O)N3OCC[C@H]3c3cc(F)cc(F)c3)CC2)ccc1F [Compound 52, cis-5-((4-((S)-3-(3,5-difluorophenyl)isoxazolidine-2-carbonyl)cyclohexyl)methoxy)-2-fluorobenzonitrile] | 8.22 | 7.74 | 
